Source: patent publication US10231956B2, “3-(1H-pyrrolo[3,2-C]pyridin-2-YL)-1 H-pyrazolo[4,3-B]pyridines and therapeutic uses thereof” (Samumed, LLC, priority 2015, dated 2019)

Columns and labels:
[1] = tested on: primary human fibroblasts derived from IPF patients (LL29 cells); experiment: Inhibition of fibrotic process: αSMA staining in TGF-β1 treated LL29 fibroblasts; assay type: cell-based; conditions: Fibroblast; for EC50: 96 h, TGF-β1 20 ng/mL, 4 days, % cells positive for αSMA
From the text: Representative compounds were screened using primary human fibroblasts (derived from IPF patients) treated with TGF-β1 to determine their ability to inhibit the fibrotic process.
Human Fibroblast Cell Culture: Primary human fibroblasts derived from IPF patients (LL29 cells) [^1Xiaoqiu Liu, et. al., “Fibrotic Lung Fibroblasts Show Blunted Inhibition by cAMP Due to Deficient cAMP Response Element-Binding Protein Phosphorylation”, Journal of Pharmacology and Experimental Therapeutics (2005), 315(2), 678-687; ^2Watts, K. L., et. al., “RhoA signaling modulates cyclin D1 expression in human lung fibroblasts; implications for idiopathic pulmonary fibrosis”, Respiratory Research (2006), 7(1), 88] were obtained from American Type Culture Collection (ATCC) and expanded in F12 medium supplemented with 15% Fetal Bovine Serum and Penicillin/Streptomycin.
Compound Screening: Each compound was dissolved in DMSO as a 10 mM stock and used to prepare compound source plates. Serial dilution (1:2, 11-point dose-response curves from […]) and compound transfer was performed using the ECHO 550 (Labcyte, Sunnyvale, Calif.) into 384-well clear bottom assay plates (Greiner Bio-One) with appropriate DMSO backfill for a final DMSO concentration of 0.1%. LL29 cells are plated at 1,500 cells/well in 80 μL/well F12 medium supplemented with 1% Fetal Bovine Serum. One hour after addition of the cells, TGF-β1 (Peprotech; 20 ng/mL) was added to the plates to induce fibrosis (ref. 1 and 2 above). Wells treated with TGF-β1 and containing DMSO were used as controls. Cells were incubated at 37° C. and 5% CO2 for 4 days. Following incubation for 4 days, SYTOX green nucleic acid stain (Life Technologies [Thermo Fisher Scientific]) was added to the wells at a final concentration of 1 μM and incubated at room temperature for 30 min. Cells were then fixed using 4% formaldehyde (Electron Microscopy Sciences), washed 3 times with PBS followed by blocking and permeabilization using 3% Bovine Serum Albumin (BSA; Sigma) and 0.3% Triton X-100 (Sigma) in PBS. Cells were then stained with antibody specific to α-smooth muscle actin (αSMA; Abcam) (ref. 1 and 2 above) in 3% Bovine Serum Albumin (BSA; Sigma) and 0.3% Triton X-100 (Sigma) in PBS, and incubated overnight at 4° C. Cells were then washed 3 times with PBS, followed by incubation with Alexa Flor-647 conjugated secondary antibody (Life Technologies [Thermo Fisher Scientific]) and DAPI at room temperature for 1 hour. Cells were then washed 3 times with PBS and plates were sealed for imaging. αSMA staining was imaged by excitation at 630 nm and emission at 665 nm and quantified using the Compartmental Analysis program on the CellInsight CX5 (Thermo Scientific). Dead or apoptotic cells were excluded from analysis based on positive SYTOX green staining. % of total cells positive for αSMA were counted in each well and normalized to the average of 11 wells treated with TGF-β1 on the same plate using Dotmatics' Studies Software. The normalized averages (fold change over untreated) of 3 replicate wells for each compound concentration were used to create dose-responses curves and EC50 values were calculated using non-linear regression curve fit in the Dotmatics' Studies Software. For EC50 of >10 μM, the percent inhibition at 10 μM is provided.

[2] = tested on: IL-6; experiment: IL-6 inhibition in LPS-stimulated THP-1 cells (HTRF); assay type: cell-based; conditions: Homo sapiens; for EC50: LPS 500 ng/mL, 22 hours, IL6 HTRF; for inhibition at 10 µM: given for EC50 >10 μM, LPS, IL6, 10 μM, read-out: percent inhibition at 10 μM
Procedure: Human Monocyte Cell Culture: Human monocyte cell line (THP-1 cells; Catalog # TIB-202, ATCC, Manassas, Va.) were cultured in Roswell Park Memorial Institute (RPMI) 1640 Medium (Catalog #21870-100, Buffalo, N.Y.) with 1% L-glutamine, 1% HEPES, 1% Sodium Pyruvate, 2% Sodium Bicarbonate supplemented with 100 units/mL penicillin, 50 μg/mL streptomycin, 2-mercaptoethanol (0.05 mM) [basal medium] and 10% fetal bovine serum (Catalog #16140089, Life Technologies, Carlsbad, Calif.) at 37° C. and 5% CO2.
Compound Screening: THP-1 cells were cultured in basal media with 1% FBS for 24 hours before the start of the assay. Each compound was dissolved in DMSO as a 10 mM stock and used to prepare compound source plates. Serial dilution (1:3, 10-point dose-response curves starting from 1 μM) and compound transfer was performed using the ECHO 550 (Labcyte, Sunnyvale, Calif.) into 384-well white low volume assay plates (Greiner Bio-One) with appropriate DMSO backfill for a final DMSO concentration of 0.1%. THP-1 cells were plated at 5000 cells/well in the 384-well plates and incubated at 37° C. for 2 h. 500 ng/mL of LPS was added after 2 hours and cells were incubated for another 22 hours at 37° C. Plates were spun in a centrifuge for 1 minute at 10,000 rpm and a mixture of anti-IL6 XL665, and anti-IL6 Cryptate diluted in reconstitution buffer (Cisbio Inc.) was added to each well. Following incubation for 3 hrs at room temperature, Homogeneous Time-Resolved Fluorescence (HTRF) was measured using the Envision (Perkin Elmer) at 665 nm and […]. The ratio of fluorescence at 665 nm to 620 nm was used as a readout for IL6 quantification. All samples were processed in duplicate. Readings were normalized to DMSO treated cells and normalized activities were utilized for EC50 calculations using the dose-response log (inhibitor) vs. response-variable slope (four parameters) nonlinear regression feature available in GraphPad Prism 5.0 (or Dotmatics). For EC50 of >10 μM, the percent inhibition at 10 μM is provided.

Row | Structure (SMILES) | EC50 [1] [nM] | EC50 [2] [nM] | inhibition at 10 µM ([1]; given for EC50 >10 μM, TGF-β1, αSMA, 10 μM, read-out: percent inhibition at 10 μM) [%] | inhibition at 10 µM [2] [%]
1 | c1cc2[nH]c(-c3n[nH]c4ccc(-c5cncc(OCCN6CCCC6)c5)nc34)cc2cn1 [Compound 658, 5-(5-(2-(Pyrrolidin-1-yl)ethoxy)pyridin-3-yl)-3-(1H-pyrrolo[3,2-c]pyridin-2-yl)-1H-pyrazolo[4,3-b]pyridine] | 4750 | 1070 |  | 
2 | CN1CCN(c2nccc3[nH]c(-c4n[nH]c5ccc(-c6cncc(CN7CCCCC7)c6)nc45)cc23)CC1 [Compound 239, 3-(4-(4-methylpiperazin-1-yl)-1H-pyrrolo[3,2-c]pyridin-2-yl)-5-(5-(piperidin-1-ylmethyl)pyridin-3-yl)-1H-pyrazolo[4,3-b]pyridine] | 1500 | 3980 |  | 
3 | CN(C)c1cncc(-c2ccc3[nH]nc(-c4cc5c(-c6cccc(F)c6)nccc5[nH]4)c3n2)c1 [Compound 7, 5-(3-(4-(3-Fluorophenyl)-1H-pyrrolo[3,2-c]pyridin-2-yl)-1H-pyrazolo[4,3-b]pyridin-5-yl)-N,N-dimethylpyridin-3-amine] | > 10000 | 104 | 0 | 
4 | Fc1cccc(-c2nccc3[nH]c(-c4n[nH]c5ccc(-c6cccnc6)nc45)cc23)c1 [Compound 4, 3-(4-(3-Fluorophenyl)-1H-pyrrolo[3,2-c]pyridin-2-yl)-5-(pyridin-3-yl)-1H-pyrazolo[4,3-b]pyridine] | 427 | 51 |  | 
5 | Cc1ccncc1-c1ccc2[nH]nc(-c3cc4c(-c5cc(F)cc(CNS(C)(=O)=O)c5)nccc4[nH]3)c2n1 [Compound 481, N-(3-Fluoro-5-(2-(5-(4-methylpyridin-3-yl)-1H-pyrazolo[4,3-b]pyridin-3-yl)-1H-pyrrolo[3,2-c]pyridin-4-yl)benzyl)methanesulfonamide] | 311 | 45 |  | 
6 | Fc1ccc(-c2nccc3[nH]c(-c4n[nH]c5ccc(-c6cncc(CN7CCC(F)(F)C7)c6)nc45)cc23)cc1 [Compound 54, 5-(5-((3,3-Difluoropyrrolidin-1-yl)methyl)pyridin-3-yl)-3-(4-(4-fluorophenyl)-1H-pyrrolo[3,2-c]pyridin-2-yl)-1H-pyrazolo[4,3-b]pyridine] | 521 | 121 |  | 
7 | Cc1ncc(-c2ccc3[nH]nc(-c4cc5c(-c6ccncc6)nccc5[nH]4)c3n2)n1C [Compound 573, 5-(1,2-Dimethyl-1H-imidazol-5-yl)-3-(4-(pyridin-4-yl)-1H-pyrrolo[3,2-c]pyridin-2-yl)-1H-pyrazolo[4,3-b]pyridine] | 73 | > 10000 |  | 0
8 | Fc1cccc(-c2nccc3[nH]c(-c4n[nH]c5ccc(-c6cncc(OCc7ccccc7)c6)nc45)cc23)c1 [Compound 518, 5-(5-(Benzyloxy)pyridin-3-yl)-3-(4-(3-fluorophenyl)-1H-pyrrolo[3,2-c]pyridin-2-yl)-1H-pyrazolo[4,3-b]pyridine] | 1040 | > 10000 |  | 27.5
9 | CN1CCN(c2nccc3[nH]c(-c4n[nH]c5ccc(-c6cncc(NC(=O)CC7CCNCC7)c6)nc45)cc23)CC1 [Compound 641, N-(5-(3-(4-(4-Methylpiperazin-1l-yl)-1H-pyrrolo[3,2-c]pyridin-2-yl)-1H-pyrazolo[4,3-b]pyridin-5-yl)pyridin-3-yl)-2-(piperidin-4-yl)acetamide] | 5000 | > 10000 |  | 20.6
10 | FC1(F)CCN(Cc2cncc(-c3ccc4[nH]nc(-c5cc6c(N7CCCCC7)nccc6[nH]5)c4n3)c2)C1 [Compound 194, 5-(5-((3,3-Difluoropyrrolidin-1-yl)methyl)pyridin-3-yl)-3-(4-(piperidin-1-yl)-1H-pyrrolo[3,2-c]pyridin-2-yl)-1H-pyrazolo[4,3-b]pyridine] | 1030 | 186 |  | 
11 | CS(=O)(=O)NCc1cc(F)cc(-c2nccc3[nH]c(-c4n[nH]c5ccc(-c6cncc(CN7CCC(F)(F)C7)c6)nc45)cc23)c1 [Compound 502, N-(3-(2-(5-(5-((3,3-Difluoropyrrolidin-1-yl)methyl)pyridin-3-yl)-1H-pyrazolo[4,3-b]pyridin-3-yl)-1H-pyrrolo[3,2-c]pyridin-4-yl)-5-fluorobenzyl) methanesulfonamide] | 218 | 349 |  | 
12 | CC(C)CC(=O)Nc1cncc(-c2ccc3[nH]nc(-c4cc5c(-c6cc(F)cc(CNS(C)(=O)=O)c6)nccc5[nH]4)c3n2)c1 [Compound 478, N-(5-(3-(4-(3-Fluoro-5-(methylsulfonamidomethyl)phenyl)-1H-pyrrolo[3,2-c]pyridin-2-yl)-1H-pyrazolo[4,3-b]pyridin-5-yl)pyridin-3-yl)-3-methylbutanamide] | 5700 | 108 |  | 
13 | Fc1cccc(-c2nccc3[nH]c(-c4n[nH]c5ccc(-c6cncc(CN7CCCCC7)c6)nc45)cc23)c1 [Compound 15, 3-(4-(3-Fluorophenyl)-1H-pyrrolo[3,2-c]pyridin-2-yl)-5-(5-(piperidin-1-ylmethyl)pyridin-3-yl)-1H-pyrazolo[4,3-b]pyridine] | 554 | 9360 |  | 
14 | Cc1ccncc1-c1ccc2[nH]nc(-c3cc4c(-c5ccc(F)cc5)nccc4[nH]3)c2n1 [Compound 33, 3-(4-(4-Fluorophenyl)-1H-pyrrolo[3,2-c]pyridin-2-yl)-5-(4-methylpyridin-3-yl)-1H-pyrazolo[4,3-b]pyridine] | 3300 | > 10000 |  | 31.3
15 | CS(=O)(=O)NCc1cc(F)cc(-c2nccc3[nH]c(-c4n[nH]c5ccc(-c6cncc(NC(=O)C7CCCCC7)c6)nc45)cc23)c1 [Compound 499, N-(5-(3-(4-(3-Fluoro-5-(methylsulfonamidomethyl)phenyl)-1H-pyrrolo[3,2-c]pyridin-2-yl)-1H-pyrazolo[4,3-b]pyridin-5-yl)pyridin-3-yl)cyclohexanecarboxamide] | 958 | 542 |  | 
16 | Fc1ccc(-c2nccc3[nH]c(-c4n[nH]c5ccc(-c6cncc(OC7CCNCC7)c6)nc45)cc23)cc1 [Compound 528, 3-(4-(4-Fluorophenyl)-1H-pyrrolo[3,2-c]pyridin-2-yl)-5-(5-(piperidin-4-yloxy)pyridin-3-yl)-1H-pyrazolo[4,3-b]pyridine] | 1440 | 724 |  | 
